Reference: patent US11229649B2, “Methods for treating cryptosporidiosis using triazolopyridazines” (University of Vermont and State Agricultural College, priority 2015, dated 2022)
Entries after “also recorded” stand apart in the source; their conditions may differ. Where two headings read alike, the source gives them in different places. Blank lines part the entries; values can stand above or below the compound they belong to.

Columns and labels:
C. parvum (Iowa strain) = assay: NOD SCID gamma immunocompromised mouse model of cryptosporidiosis (fecal oocyst shedding by qPCR); format: in vivo, Cryptosporidium parvum
Text: A NOD SCID gamma mouse model was used for in vivo testing of confirmed screening hits. NOD SCID gamma mice (Jackson Laboratories) develop Cryptosporidium parvum infection following oral gavage that is characterized by persistent infection of the small intestinal and cecal epithelium. The mice remain asymptomatic and gain weight normally. Infection is established by oral gavage of 1×10^4 C. parvum (Iowa strain) oocysts on day −6. Fecal parasite shedding is quantified by quantitative PCR of genomic DNA, using a standard curve generated by spiking oocysts into fecal samples from uninfected mice. Fecal oocyst shedding reliably becomes detectable at day 1 (1 week after infection). Experimental compounds are administered by oral gavage of 30 mg/kg in DMSO:1% HPMC (5:95) twice daily for 4 days. Parasite shedding is compared to that for infected mice treated with drug carrier alone (i.e. DMSO:1% HPMC (5:95)).
Results for treatment of C. parvum infected NOD SCID gamma mice with DMSO or selected MMV Malaria Box screening hits with confirmed in vitro activity given by oral gavage of 30 mg/kg twice daily on days 1-4 can be seen in FIG. 2. Cryptosporidium parvum infection was established on day −6. Parasite shedding is detectable in all animals on day 1. […] Other compounds and DMSO had no effect. Data shown are the mean and SE for parasites detected/mg of feces (n=4 animals per treatment group).
A repeat of the experiment presented in FIG. 2 showing efficacy of MMV665917 in the NOD SCID gamma mouse model is presented in FIG. 5. […] For this experiment, NOD SCID gamma mice were infected on day −6 by oral gavage of C. parvum oocysts, shedding was detected at day 0 prior to compound dosing, compounds or vehicle were dosed on days 0-6 as indicated, and mice were maintained for one week following cessation of treatment. Data shown are the mean and SE for the number of oocysts/mg stool detected by real time PCR of the feces on the indicated day (four mice per experimental group).

C. parvum = C. parvum growth inhibition in HCT-8 cells, in vitro dose response (immunofluorescence); format: cell-based; conditions: Cryptosporidium parvum; C. parvum in HCT-8 cells; plate control of the screen; read-out: 90% inhibitory concentration (IC90)
Protocol: Materials and Methods: Cell culture and Cryptosporidium infections: The high throughput screen for C. parvum growth inhibitors was carried out using human ileocecal adenocarcinoma (HCT-8) cells (ATCC) maintained in RPMI 1640 medium with HEPES, sodium pyruvate (1 mM) and L-glutamate with 10% horse serum (ATCC) supplemented with 120 U/mL penicillin and 120 μg/mL streptomycin. HCT-8 cells were grown to confluence in 384-well, tissue culture-treated, black-walled, clear-bottom microwell plates (BD Falcon). […]
Infected monolayers were washed three times with PBS containing 111 mM D-galactose using an EL406 automated plate washer (Biotek), fixed with 4% paraformaldehyde, permeabilized with 0.25% Triton X-100 in PBS, and then blocked with 4% bovine serum albumin (BSA). Vegetative forms of C. parvum were detected by the addition of biotinylated Vicia villosa lectin (VVL; Vector Laboratories) and streptavidin-conjugated Alexa Fluor 568 (Invitrogen) diluted in PBS with 1% BSA and 0.1% Tween 20. […]
ImageJ outputs were imported into Microsoft Excel for data organization and analysis. Percent inhibition was calculated (equation 1) for each well in order to normalize the data and to facilitate the combination of data from individual biological replicates. […]

C. parvum Iowa strain = assay: Static or cidal assay: C. parvum persistence in HCT-8 cells at multiples of the EC90; format: cell-based, Cryptosporidium parvum; conditions: compound added 24 hours after infection of HCT-8 cells (FIG. 7)
Protocol: HCT-8 cell monolayers are infected and parasites are allowed to replicate for 24 hours before addition of experimental drug compounds. Parasite numbers are then measured at different time points following compound addition by epifluorescence microscopy, using the same method as used in FIG. 1.
To assess if MMV665917 is cidal or static for C. parvum and determine the concentration of compound required to maximize the rate of parasite elimination, C. parvum persistence in HCT-8 colonic carcinoma cells was assayed in the presence of increasing multiples of the in vitro EC90. Briefly, the assay infects HCT-8 intestinal epithelial cells with the C. parvum Iowa strain as in Example 1. Parasites are then allowed to develop for 24 hours prior to the addition of the indicated concentration of experimental compounds (time 0 in the graphs above). At the indicated times following compound addition, samples are then fixed, the host cells and parasites are fluorescently stained, and parasites are enumerated by automated epifluorescence microscopy and image process as described in Example 1.

Cryptosporidium = conditions: cited from earlier work
[1] = Mouse plasma concentration, single oral dose and simulated BID dosing; format: in vivo
Protocol: Compounds were dosed as indicated either orally by oral gavage or intravenously, and serum samples were collected at the indicated time points. The MMV665917 plasma concentration was measured by LC-MS/MS.
(§1) Mouse serum concentrations measured from a single 55 mg/kg oral dose of MMV665917 (see above figure) were used to simulate the mouse serum concentrations following BID dosing of either 30 mg/kg or 60 mg/kg. The measured calf plasma concentration following a single 22 mg/kg oral dose is also shown. Note that a minimum concentration of EC90 was required for parasite elimination in vitro, and the rate of parasite elimination in vitro was maximized at 3× the EC90 concentration.
as §1, with “The actual and simulated mouse and calf plasma concentrations for MMV665917, correlated to the EC90 and 3×EC90 concentrations are shown in FIG. 9. Mouse” for “Mouse”, “(FIG. 9)” for “(see above figure)”

[2] = In vitro plasma/blood stability and whole blood-to-plasma ratio; format: in vitro ADME, rat; conditions: 37° C.
Protocol: In Vitro Determination of Plasma/Blood Stability and Whole Blood-to-Plasma Ratio. MMV665917 was spiked into fresh heparinized whole blood (collected from male Sprague Dawley rats) or plasma of a corresponding volume (which acted as a matrix control) to an initial nominal concentration of 500 ng/mL. As a whole blood assay for the compound was not available, the concentration of MMV665917 in the spiked plasma (i.e. matrix control) was used as a surrogate measurement of the spiked whole blood concentration. Whole blood samples were incubated at 37° C. for up to 240 min after which plasma and erythrocytes were separated by centrifugation prior to determination of plasma concentrations by LC-MS. Whole blood-to-plasma partitioning ratios (B/P) were obtained by dividing the measured concentration in the plasma control sample by the concentration measured in plasma following centrifugation of whole blood.

[3] = Pharmacokinetics in male Sprague Dawley rats (IV and oral); format: in vivo, rat
Protocol: The pharmacokinetics of MMV665917 were studied in overnight-fasted male Sprague Dawley rats that had access to water ad libitum throughout the pre- and post-dose sampling period, and access to food was re-instated 4 h (hour) post-dose. MMV665917 was administered intravenously as a 10 min (minute) constant rate infusion via an indwelling jugular vein cannula (1 mL per rat, n=2 rats) and orally by gavage (10 mL/kg per rat, n=2 rats). Samples of arterial blood and total urine were collected up to 24 h post-dose. Arterial blood was collected directly into borosilicate vials (at 4° C.) containing heparin, Complete® (a protease inhibitor cocktail), potassium fluoride, and EDTA to minimise potential for ex vivo degradation of test compound in blood/plasma samples. Once collected, blood samples were centrifuged, supernatant plasma was removed and stored frozen (−20° C.) until analysis by LC-MS. IV Formulation. MMV665917 was dissolved in propylene glycol and ethanol before Milli-Q water was added producing a clear solution. The formulation was filtered through a 0.22 μm syringe filter prior to dosing, and the measured concentration of compound the filtered solution was 0.24 mg/mL. Oral Formulation. MMV665917 was wet milled in HPMC-SV in an agate mortar and sonicated for 10 minutes producing a uniform suspension. The bulk formulation was mixed by inverting the tubes prior to drawing each dosing volume and the average measured concentration of compound in aliquots (n=3) of formulation was 0.32 mg/mL (range 0.28-0.37 mg/mL).

[4] = 30 mg/kg twice daily oral gavage, days 1-4 (FIG. 2)

Structure (SMILES): NC[C@@H]1O[C@H](O[C@H]2[C@@H](O)[C@H](O[C@@H]3[C@@H](O)[C@H](N)C[C@H](N)[C@H]3O[C@H]3O[C@H](CO)[C@@H](O)[C@H](O)[C@H]3N)O[C@@H]2CO)[C@H](N)[C@@H](O)[C@@H]1O [paromomycin, reference compound]
- relapse after treatment cessation (C. parvum (Iowa strain); 1000 mg/kg twice daily, positive control (FIG. 5)): relapsed quickly after treatment cessation

- IC90 (C. parvum): 6.6 µM
Structure (SMILES): CC(=O)Oc1ccccc1C(=O)Nc1ncc([N+](=O)[O-])s1 [nitazoxanide]
- activity in the NOD SCID gamma mouse model (C. parvum (Iowa strain); dose not stated): lacks activity
- static or cidal for C. parvum (C. parvum Iowa strain): static
- efficacy in cryptosporidiosis (Cryptosporidium; AIDS patients / immunocompromised people): lacks activity
- efficacy in cryptosporidiosis (Cryptosporidium; AIDS patients / immunocompromised people, listed as Nitazoxanide): no more effective than placebo
- efficacy in cryptosporidiosis (Cryptosporidium; children): partial efficacy

- intestinal absorption ([1]; mouse (FIG. 4)): slow
- serum half-life ([1]; mouse (FIG. 4)): prolonged
- systemic exposure ([1]; mouse (FIG. 4)): moderate
- time to peak serum concentration ([1]; mouse, single dose (FIG. 4)): 6 h
- stability in rat plasma and whole blood ([2]; up to 240 min, 500 ng/mL): stable
- blood plasma ratio at 500 ng/mL ([2]; male, Sprague Dawley, fresh heparinized whole blood, rat blood, read-out: apparent in vitro whole blood to plasma partitioning ratio (B/P)): 1.1
- half-life ([3]; male, Sprague Dawley, rat, plasma, 0.24 mg per rat, rats, IV administration, read-out: apparent terminal half-life): 180 to 240 min
- bioavailability ([3]; male, Sprague Dawley, rat, plasma, po, 3.2 mg/kg, rats, oral administration, read-out: apparent oral bioavailability): 24 to 43%
- apparent volume of distribution ([3]; rats, IV administration): moderate
- in vivo clearance ([3]; rats, IV administration): low
- time plasma concentrations remained above the analytical LLQ ([3]; rats, IV administration): 16 h
- fraction of the dose recovered in urine as intact compound ([3]; rats, IV, 24 h sampling period): approximately 25%
- absorption ([3]; rats, oral administration): slowly absorbed
- time of maximum plasma concentrations ([3]; rats, oral administration): 5 h post-dose
Structure (SMILES): O=C(Nc1ccc(Cl)cc1)N1CCN(c2ccc3nncn3n2)CC1 [MMV665917]
- plasma/serum concentration relative to the EC90 / 3×EC90 ([1]; mouse, 30 mg/kg BID, simulated from single 55 mg/kg oral dose): exceeds the EC90 for just over ½ the dosing interval; also recorded: not attained
- efficacy across the two experiments (C. parvum (Iowa strain); 30 mg/kg BID (effective in FIG. 2, ineffective in FIG. 5)): variable efficacy; also recorded: variably efficacious
- parasite shedding (oocysts/mg feces) (C. parvum (Iowa strain); [4]): significantly reduced parasite shedding
- persistence of reduced parasite shedding following cessation of treatment (C. parvum (Iowa strain); [4]): > 3 days
- efficacy on C. parvum shedding, repeat experiment (C. parvum (Iowa strain); 30 mg/kg twice daily oral gavage, seven days (FIG. 5)): inactive; also recorded: not effective
- efficacy on C. parvum shedding, repeat experiment (C. parvum (Iowa strain); 60 mg/kg twice daily oral gavage, seven days (FIG. 5)): eliminated detection of C. parvum shedding in the feces; also recorded: cured; also recorded: curative
- relapse over the week following cessation of treatment (C. parvum (Iowa strain); 60 mg/kg twice daily, seven days (FIG. 5)): no relapse was observed
- static or cidal for C. parvum (C. parvum Iowa strain): cidal
- haemolysis in plasma ([3]; rat, in vivo, iv): Evidence of haemolysis was observed
- adverse reactions or compound related side effects ([3]; rats, following IV or oral administration): No adverse reactions or compound related side effects were observed
- apparent terminal half-life ([3]; rats, oral administration): consistent with that observed after IV dosing
